Columns and labels:
[1] = human, serum
[2] = human, serum; remark: listed apart in the source
[3] = human
[4] = Highest frequency of acute liver toxicity observed during clinical trials, expressed as a percentage. [column '% AIGUE' in source]; details: human
[5] = human; remark: listed apart in the source
[6] = human; remark: listed apart in the source
[7] = Times to onset, minimal and maximal, observed in the indexed observations. [column 'DELAI' in source]; details: human
[8] = Highest frequency of moderate liver toxicity observed during clinical trials, expressed as a percentage. [column '% BIOL' in source]; details: human
[9] = human; remark: listed apart in the source
[10] = human; remark: listed apart in the source
[11] = human, serum, 4383 h
[12] = human; remark: listed apart in the source
[13] = human; remark: listed apart in the source
[14] = human; remark: listed apart in the source
[15] = human; remark: listed apart in the source
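Wherever Hepatotoxicity (association with vascular disease) is given: count of indexed literature references reporting vascular liver injury in humans, e.g. peliosis hepatitis, hepatic veno-occlusive disease or Budd-Chiari syndrome.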
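Wherever Hepatotoxicity (benign tumour) is given: value is a count of indexed literature references citing a benign tumour confirmed by histopathology.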
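Wherever Hepatotoxicity (choleostasis) is given: human cholestatic liver injury, shown by histopathology or by peak ALT or AST elevation over alkaline phosphatase ratio below 2, value counts indexed literature reports.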
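Wherever Hepatotoxicity (chronic liver disease) is given: chronic liver injury confirmed by histopathology or persistently raised serum aminotransferase activity beyond 6 months, value given as the count of indexed literature references.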
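Wherever Hepatotoxicity (cirrhosis) is given: value is a count of indexed literature references reporting cirrhosis confirmed by histopathology.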
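Wherever Hepatotoxicity (cytolytic) is given: human cytolytic liver injury, shown by histopathology or by a ratio above 5 of peak ALT or AST elevation to alkaline phosphatase elevation, value counts indexed references.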
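Wherever Hepatotoxicity (granulomatous hepatitis) is given: value is a count of indexed literature references reporting granulomatous liver disease confirmed by histopathology.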
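Wherever Hepatotoxicity (malignant tumour) is given: malignant tumour confirmed by histopathology, value gives the count of indexed literature references reporting it.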
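Wherever Hepatotoxicity (severe hepatitis) is given: human clinical data: severe hepatitis, meaning potentially life-threatening liver failure or clinically observed cases, the value counts how many indexed literature references report it.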
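Wherever Hepatotoxicity (steatosis) is given: steatosis confirmed by histopathology, value is the count of indexed references.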

Row | Structure (SMILES) | Hepatotoxicity (acute) [1] | Hepatotoxicity (moderate) [2] | Hepatotoxicity (malignant tumour) [3] | Hepatotoxicity (acute) [4] [%] | Hepatotoxicity (cytolytic) [5] | Hepatotoxicity (severe hepatitis) [6] | Hepatotoxicity (time to onset) [7] | Hepatotoxicity (moderate) [8] [%] | Hepatotoxicity (choleostasis) [9] | Hepatotoxicity (steatosis) [10] | Hepatotoxicity (chronic liver disease) [11] | Hepatotoxicity (granulomatous hepatitis) [12] | Hepatotoxicity (association with vascular disease) [13] | Hepatotoxicity (cirrhosis) [14] | Hepatotoxicity (benign tumour) [15] | Hepatotoxicity (acute) ([4]; Liver) [%] | Hepatotoxicity (severe hepatitis) ([6]; Liver) | Hepatotoxicity (moderate) ([8]; Liver) [%]
1 | CCS(=O)(=O)CCn1c([N+](=O)[O-])cnc1C [TINIDAZOLE] | 1 | 1 | 0 | 0 | 1 | 0 | 1 week | 0 | 0 | 0 | 0 | 0 | 0 | 0 | 0 |  |  | 
2 | Sc1ncnc2[nH]ncc12 [TISOPURINE] | 1 | 0 | 0 | 0 | 1 | 0 | 1.5 months | 0 | 0 | 0 | 0 | 0 | 0 | 0 | 0 |  |  | 
3 | NC[C@H]1O[C@H](O[C@H]2[C@H](O)[C@@H](O[C@H]3O[C@H](CO)[C@@H](O)[C@H](N)[C@H]3O)[C@H](N)C[C@@H]2N)[C@H](N)C[C@@H]1O [TOBRAMYCIN] | 1 | 12 | 0 | 0 | 0 | 0 | 1 day - 3 weeks | 23.5 | 0 | 0 | 0 | 0 | 0 | 0 | 0 |  |  | 
4 | Cc1ccc(C(=O)c2ccc(CC(=O)O)n2C)cc1 [TOLMETIN] | 1 | 3 | 0 |  | 0 |  | 3 weeks |  | 1 | 0 | 0 | 0 | 0 | 0 | 0 | 0 | 0 | 14.6
5 | Cc1cccc(N2CC(CO)OC2=O)c1 (stereo not given) [TOLOXATONE] | 2 | 0 | 0 | 0 | 2 | 1 | 15 days - 10 months | 0 | 1 | 0 | 0 | 0 | 0 | 0 | 0 |  |  | 
6 | CC1(C)O[C@@H]2[C@@H](CO[C@@]3(COS(N)(=O)=O)OC(C)(C)O[C@@H]23)O1 [TOPIRAMATE] | 2 | 1 | 0 | 0 | 2 | 1 | 2 months - 4 months | 23 | 0 | 0 | 0 | 0 | 0 | 0 | 0 |  |  | 
7 | CN(C)CCOc1ccc(/C(=C(/CCCl)c2ccccc2)c2ccccc2)cc1 [TOREMIFENE] | 2 | 4 | 0 | 6.1 | 0 | 0 | 3 months | 8.3 | 1 | 1 | 0 | 0 | 0 | 0 | 0 |  |  | 
8 | CCOC(=O)[C@H](CCc1ccccc1)N[C@@H](C)C(=O)N1[C@H](C(=O)O)C[C@H]2CCCC[C@@H]21 [TRANDOLAPRIL] | 1 | 2 | 0 | 0 | 0 | 0 | 2 weeks | 1.1 | 1 | 0 | 0 | 0 | 0 | 0 | 0 |  |  | 
9 | NS(=O)(=O)c1cc2c(cc1Cl)NC(C(Cl)Cl)NS2(=O)=O (stereo not given) [TRICHLORMETHIAZIDE] | 0 | 1 | 0 | 0 | 0 | 0 | 1 week | 0 | 0 | 0 | 0 | 1 | 0 | 0 | 0 |  |  | 
10 | CSc1nc2cc(Cl)c(Oc3cccc(Cl)c3Cl)cc2[nH]1 [TRICLABENDAZOLE] | 1 | 0 | 0 | 0.7 | 0 | 0 | 3 days | 0 | 1 | 0 | 0 | 0 | 0 | 0 | 0 |  |  | 
11 | COc1ccc(CN2CCNCC2)c(OC)c1OC [TRIMETAZIDINE] | 1 | 0 | 0 | 0 | 0 | 0 | 2 weeks | 0 | 1 | 0 | 0 | 0 | 0 | 0 | 0 |  |  | 
12 | COc1cc(C(=O)NCc2ccc(OCCN(C)C)cc2)cc(OC)c1OC [TRIMETHOBENZAMIDE] | 2 | 0 | 0 | 0 | 2 | 0 | 5 days | 0 | 1 | 0 | 0 | 0 | 0 | 0 | 0 |  |  | 
13 | N[C@@H]1[C@H]2CN(c3nc4c(cc3F)c(=O)c(C(=O)O)cn4-c3ccc(F)cc3F)C[C@@H]12 [TROVAFLOXACIN] | 6 | 4 | 0 |  | 6 |  | 5 days - 4 weeks |  | 1 | 0 | 0 | 0 | 0 | 0 | 0 | 0 | 1 | 2.3
14 | CN[C@H](CC(C)C)C(=O)N[C@H]1C(=O)N[C@@H](CC(N)=O)C(=O)N[C@H]2C(=O)N[C@H]3C(=O)N[C@H](C(=O)N[C@H](C(=O)O)c4cc(O)cc(O)c4-c4cc3ccc4O)[C@H](O)c3ccc(c(Cl)c3)Oc3cc2cc(c3O[C@@H]2O[C@H](CO)[C@@H](O)[C@H](O)[C@H]2O[C@H]2C[C@](C)(N)[C@H](O)[C@H](C)O2)Oc2ccc(cc2Cl)[C@H]1O [VANCOMYCIN] | 1 | 9 | 0 | 0 | 1 | 0 | 4 days | 50 | 0 | 0 | 0 | 0 | 0 | 0 | 0 |  |  | 
